“And” between values parts separate entries of the source, which are not always exact repeats. Identical values can stand only once. “Also recorded” adds a separate entry of the source. Where a SMILES comes first, the peptide text is derived from it. Where no end group is shown, it is not given here.
Assays:
mutant p53-R175H = assay: Immunoblotting of mutant p53 steady state levels in CpD cells; type: cell-based; conditions: CpD cells transfected with DDK-tagged p53R175H; peptides 20 mM for 6 h
Procedure: CpD cells overexpressing mutant p53 were transfected with DDK-tagged p53R175H mutant. Cells were then treated with indicated peptides ([…] for 6 h).
Consequently, the effect of all thirteen peptides on mutant p53 steady state levels was tested.

CpD cells = assay: Clonogenic survival of mutant p53 driven CpD cells; conditions: for cytotoxic effect on either cell type: CpA and CpD cells; for differential activity in reducing clonogenic survival of CpD cells: CpD versus CpA
Procedure: The effects of different siRNAs (e.g., GRAIL Iso1-1, GRAIL Iso1-2, TP53) on clonogenic survival of different BE (CpA, CpD) and EAC (Flo1, OE19, and OE33) cell lines were determined by normalizing the survival fraction of control siRNA-treated group as 1.
For this purpose, two BE cell lines were used, CpA (with wild type p53) and CpD (carrying mutant p53). […] In brief, 3000 cells in 100 μl of complete medium were plated per well in a 96-well plate 24 h prior to peptide treatments. Cells were then either treated with vehicle (dH2O) or serial dilutions of peptides. Two days following treatments MTT labelling reagent was added, and cells were allowed to form formazan crystals for 2 h. Following, 100 μl of solubilizing agent (10% SDS in 0.01M HCl) was added per well, and plates were incubated at 37° C. overnight. The optical density (OD) of the solubilized formazan was spectrophotometrically quantified using a plate reader at 570 nm with a reference at 650 nm. Data represent the mean (±standard error, SE) performed in quadruplicate, and percent cell viabilities are plotted in semi-logarithmic scale relative to water treated control.

claudin-1 = biological target: T1, claudin-1 (Homo sapiens, UniProt O95832); assay: In vivo fluorescence imaging with RTS*-Cy5.5; set-up: species or system mouse; conditions: after intravenous administration
T1 construct: endogenous in cells; host or cells: colonic PDO implanted in mouse rectum
T1 sequence (O95832 1-211): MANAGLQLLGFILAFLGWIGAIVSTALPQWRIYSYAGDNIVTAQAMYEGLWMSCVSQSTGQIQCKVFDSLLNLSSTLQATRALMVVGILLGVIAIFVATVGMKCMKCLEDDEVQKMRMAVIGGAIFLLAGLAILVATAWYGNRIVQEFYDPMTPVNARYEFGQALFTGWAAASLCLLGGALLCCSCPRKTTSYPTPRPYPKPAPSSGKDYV
Procedure: (A) Photo of is shown of a flexible fiber-coupled side-view confocal endomicroscope. […] Confocal images show claudin-1 expression from (D) dysplasia and (E) normal colonic mucosa with subcellular resolution. Images were collected ˜1 hour post-injection of RTS*-Cy5.5. Crypt structures and individual cells can be identified. Key: crypt (arrow), tight junction (arrowhead), lumen (I), colonocyte (c), goblet cell (g), lamina propria (lp).
This instrument has a diameter of 4.2 mm, which is small enough to perform repetitive in vivo imaging in mouse colon. The focusing optics provide a spatial resolution of 1.2 μm. A rigid wide-field endoscope was used first to collect white light (WL) and NIR fluorescence (FL) images to identify the approximate location of the implanted PDOs. Landmarks defined by the clockwise location of and distance from the anus to the distal tip of the endoscope were used to approximately locate the implanted PDOs for collection of confocal images. Tumor size and volume were estimated using a calibrated gauge passed through the instrument channel of the rigid endoscope. […] Differences in the spatial pattern of target expression between dysplasia and surrounding normal mucosa for colonic PDOs can be seen (FIG. 18D,E).

mutant p53 = test system: mutant p53
Procedure: The effect of Pep J and simvastatin treatment either alone or in combination on wild type and mutant p53 was tested in BE/EAC cells present in ten established PDOs grown in vitro. Scrambled Pep J was used as a negative control. […] Different concentrations of Pep J (10-200 μM) and simvastatin (50-1000 nM) were tested as well as different treatment time periods (24-96 hours).
Organoid lysates were prepared for immunoblotting similar to FIG. 13G.

mutant p53 and EGFR = assay: Immunoblotting of mutant p53 and EGFR levels in BE/EAC cells; type: cell-based
[1] = test system: chaperone activity (Fluc-DM); assay: Fluc-DM luciferase reporter of cellular chaperone activity; type: cell-based; conditions: 20 μM peptide, overnight
Procedure: As Frag J/J^m overexpression locks DNAJA1-Hsp70 complex, whether such interactions inhibit chaperone activity was tested. […] To understand the in vivo effects of the Frag J or different peptides in multiple cell lines including BE/EAC and p53 isogenic lines, cells were first transfected/co-transfected with Fluc-DM±Frag J constructs. Twenty-four hours post-transfection, cells were either subjected to luciferase assay or for peptide treatment studies, cells were treated with 20 μM concentrations of different peptides. After overnight incubation, cell lysates were prepared using lysis buffer provided in the luciferase assay kit in Promega luciferase assay system (cat. E1910) followed by standardized protocol as provided by the manufacturer. […] Such observation was confirmed by an in vitro chaperone activity assay using recombinant purified Hsp40-Hsp70 complex (FIG. 6D). In Fluc-DM study, loss of Fluc-DM levels following Frag J/J^m overexpression (FIG. 6E) was noted as shown using immunoblotting. Such effects were independent of p53 mutation status.

DNAJA1 [2] = assay: Peptide pull down assay with recombinant DNAJA1; type: binding; conditions: NHS activated Sepharose beads, Western blot
Procedure: Briefly, 1 mg of peptide was dissolved in 1 ml of coupling buffer (0.2 M NaHCO3, 0.5 M NaCl, pH 8.3). Peptides were conjugated to NHS-activated resin by incubating 100 μL NHS bead slurry with 200 μL peptide solution for 2 hours at room temperature (RT). Unbound sites were blocked with quenching buffer (0.5 M ethanolamine, 500 mM NaCl). Resin peptide conjugates were washed once with low pH (0.1 M acetate, 0.5 M NaCl, pH 5) and high pH buffer (0.1 M Tris HCl, pH 8.0) and equilibrated with lysis buffer 50 mM HEPES, 150 mM NaCl, 0.2% NP-40, protease inhibitor cocktail, pH 7.5. Purified HSP40 protein was procured from […] (cat #). Purified protein was diluted in lysis buffer. Approximately 40 nM protein was incubated with peptide coupled to NHS beads and incubated for 2 hours at RT. Unbound proteins were removed by centrifugation and beads were washed with washing buffer (50 mM HEPES, 300 mM NaCl, 0.2% NP-40, pH 7.5). Bound proteins were obtained by boiling beads with 1× Laemmli buffer. […] To confirm, thermal stability assays (TSA) were performed. TSA was carried out using QuantStudio™ 7 Flex Real-Time PCR System. […] The plates were covered with optical foil during the reaction in the thermal cycler. […] The Instrument was programmed in the melt curve mode with ROX reagent detection and Fast speed run. The reporter was selected as Rox and none for quencher. Each melt curve was programmed as follows: 25° C. for 15 sec, followed by increase in temperature at the speed of 0.03° C./s up to 95° C. and finally 95° C. for 15 sec. The raw data was exported to Protein Thermal Shift™ Software (Applied Biosystems) for analysis. Melting temperature was calculated using the melt curve. […] To further test functionality, an in vitro ATPase activity assay was performed using purified Hsp40 and Hsp70 proteins. […] Pep 1 was redesignated “Pep J”.

[3] = test system: OE33, OE 19 and Flo1 esophageal adenocarcinoma (EAC) cells; assay: Radiosensitization clonogenic assay of EAC cells; type: cell-based; conditions: 20 μM for 24 hours, then 0-8 Gy
Procedure: OE33, OE 19 and Flo1 esophageal adenocarcinoma (EAC) cells were plated and after overnight incubation treated with 20 μM of Pep J for an additional 24 hours. Following, cells were irradiated with different doses (0, 2, 4, 6, 8 Gy) of radiation. Cells were then incubated for 24 hours prior to plating at a clonal density to perform clonogenic assays.

[4] = test system: patient-derived organoids (PDOs); assay: Growth and survival of patient derived organoids in vitro; type: cell-based, human
[5] = test system: EAC cells (Flo1, OE19, and OE33); assay: Cell viability (MTT) of EAC cell lines; type: cell-based
OE19 = OE19 cells
DNAJA1 [6] = assay: Thermal stability assay (TSA) with purified DNAJA1; type: binding; conditions: TAT-less peptides, 0-500 μM
Procedure: (§1) Briefly, 1 mg of peptide was dissolved in 1 ml of coupling buffer (0.2 M NaHCO3, 0.5 M NaCl, pH 8.3). Peptides were conjugated to NHS-activated resin by incubating 100 μL NHS bead slurry with 200 μL peptide solution for 2 hours at room temperature (RT). Unbound sites were blocked with quenching buffer (0.5 M ethanolamine, 500 mM NaCl). Resin peptide conjugates were washed once with low pH (0.1 M acetate, 0.5 M NaCl, pH 5) and high pH buffer (0.1 M Tris HCl, pH 8.0) and equilibrated with lysis buffer 50 mM HEPES, 150 mM NaCl, 0.2% NP-40, protease inhibitor cocktail, pH 7.5. Purified HSP40 protein was procured from Boston Scientific (cat #). Purified protein was diluted in lysis buffer. Approximately 40 nM protein was incubated with peptide coupled to NHS beads and incubated for 2 hours at RT. Unbound proteins were removed by centrifugation and beads were washed with washing buffer (50 mM HEPES, 300 mM NaCl, 0.2% NP-40, pH 7.5). Bound proteins were obtained by boiling beads with 1× Laemmli buffer. […] To confirm, thermal stability assays (TSA) were performed. TSA was carried out using QuantStudio™ 7 Flex Real-Time PCR System. […] The plates were covered with optical foil during the reaction in the thermal cycler. […] The Instrument was programmed in the melt curve mode with ROX reagent detection and Fast speed run. […] Melting temperature was calculated using the melt curve. […]

Hsp40-Hsp70 = Hsp40-Hsp70 (Homo sapiens, UniProt P31689); assay: In vitro Hsp40-Hsp70 ATPase (chaperone) activity assay; type: biochemical; conditions: TAT-less peptides, dose-dependent
Procedure: as §1

GRKKRRQRRRPQCKVPPWRQ [Pep 8]
mutant p53-R175H protein levels (mutant p53-R175H): decrease in mutant p53 levels

N=C(N)NCCC[C@H](NC(=O)CN)C(=O)N[C@@H](CCCCN)C(=O)N[C@@H](CCCCN)C(=O)N[C@@H](CCCNC(=N)N)C(=O)N[C@@H](CCCNC(=N)N)C(=O)N[C@@H](CCC(N)=O)C(=O)N[C@@H](CCCNC(=N)N)C(=O)N[C@@H](CCCNC(=N)N)C(=O)N[C@@H](CCCNC(=N)N)C(=O)N[C@@H](CCCNC(=N)N)C(=O)N1CCC[C@H]1C(=O)N[C@@H](CCC(N)=O)C(=O)O [Pep 13, GRKKRRQRRRRPQ]
cytotoxic effect on either cell type (CpD cells): least cytotoxic effect

RTS*-Cy5.5: Cy5.5-labeled peptide RTSPSSR, specific for claudin-1
fluorescence intensity from implanted colonic PDO (claudin-1): strong intensity

CC[C@H](C)[C@H](NC(=O)[C@H](CC(=O)O)NC(=O)[C@H](CS)NC(=O)[C@H](CCCCN)NC(=O)[C@H](CS)NC(=O)[C@H](CCSC)NC(=O)[C@@H]1CCCN1C(=O)[C@H](CCC(N)=O)NC(=O)[C@@H]1CCCN1C(=O)[C@H](CCCNC(=N)N)NC(=O)[C@H](CCCNC(=N)N)NC(=O)[C@H](CCCNC(=N)N)NC(=O)[C@H](CCC(N)=O)NC(=O)[C@H](CCCNC(=N)N)NC(=O)[C@H](CCCNC(=N)N)NC(=O)[C@H](CCCCN)NC(=O)[C@H](CCCCN)NC(=O)[C@H](CCCNC(=N)N)NC(=O)CN)C(=O)N[C@@H](CC(C)C)C(=O)N[C@@H](CCCCN)C(=O)N[C@@H](C)C(=O)O [Pep 1] (H-GRKKRRQRRRPQPMCKCDILKA-OH; N-terminus and C-terminus assumed)
mutant p53-R175H protein levels (mutant p53-R175H): highly effective; also recorded: decrease in mutant p53 levels
mutant p53 (nuclear) levels by immunofluorescence (mutant p53; FFPE fixed and sectioned organoids, 72 h, listed as Pep J): significant reduction
reduction in mutant p53 levels (mutant p53; immunoblotting of whole PDO lysis, 72 hours of treatment): 50%
misfolded mutant p53 levels in PDOs (mutant p53; within 24 h post treatment): loss of misfolded mutant p53
impact on p53 and EGFR levels in wild type p53 cells (mutant p53 and EGFR; CpA cells): no major impact
EGFR levels (mutant p53 and EGFR; CpD and OE33 cells): reduces
mutant p53 levels (mutant p53 and EGFR; CpD and OE33 cells): reduces
inhibition of chaperone activity (Fluc-DM) [1]: inhibition of chaperone activity; also recorded: capable of inhibiting chaperone activity
interaction with purified DNAJA1 in peptide pull down (DNAJA1 [2]): showed interactions
radiosensitization [3]: radiosensitized
killing of PDOs ([4]; 7 days treatment in vitro): killed PDOs
size of organoid growth ([4]; after 72 h of treatment): No major effect
differential activity in reducing clonogenic survival of CpD cells (CpD cells): better differential activity
effect on EAC cell lines [5]: relatively more resistant

CKVPPWR [Pep 28, TAT-less Pep 9]
interaction with purified DNAJA1 in peptide pull down (DNAJA1 [2]): bound effectively

GRKKRRQRRRPQCKVPPWR [Pep 9]
mutant p53-R175H protein levels (mutant p53-R175H): highly effective; also recorded: decrease in mutant p53 levels
inhibition of chaperone activity (Fluc-DM) [1]: inhibition of chaperone activity; also recorded: capable of inhibiting chaperone activity
differential activity in reducing clonogenic survival of CpD cells (CpD cells): better differential activity

LGIEVDVEDG [Pep 29, TAT-less Pep 12; Frag J amino acids 11-20]
interaction with purified DNAJA1 in peptide pull down (DNAJA1 [2]): no interaction

PMCKVPPWRQ [Pep 27, TAT-less Pep 5]
interaction with purified DNAJA1 in peptide pull down (DNAJA1 [2]): bound effectively

GRKKRRQRRRPQPMCKVPPWRQ [Pep 5]
mutant p53-R175H protein levels (mutant p53-R175H): highly effective; also recorded: decrease in mutant p53 levels
IC50 (OE19): 19.4 µM
inhibition of chaperone activity (Fluc-DM) [1]: inhibition of chaperone activity; also recorded: capable of inhibiting chaperone activity
differential activity in reducing clonogenic survival of CpD cells (CpD cells): better differential activity
IC50 (CpD cells; read-out: IC50, clonogenic survival, CpD cells (mutant p53)): 11.2 µM and ~11 µM
effect on EAC cell lines [5]: relatively more resistant

GRKKRRQRRRPQLGIEVDVEDG [Pep 12]
cytotoxic effect on either cell type (CpD cells): least cytotoxic effect; also recorded: list effects

PMCKCDILKA [Pep 26, TAT-less Pep 1; Frag J amino acids 1-10]
thermal stability assay result with DNAJA1 (DNAJA1 [6]): showed the best result; also recorded: better interactor
interaction with purified DNAJA1 in peptide pull down (DNAJA1 [2]): bound effectively
inhibition of Hsp40-Hsp70 chaperoning (ATPase) activity (Hsp40-Hsp70): best efficacy; also recorded: most effect agent

GRKKRRQRRRPQPMCKATPWRE [Pep 4]
mutant p53-R175H protein levels (mutant p53-R175H): decrease in mutant p53 levels

GRKKRRQRRRPQPMCKVPPWR [Pep 7]
mutant p53-R175H protein levels (mutant p53-R175H): decrease in mutant p53 levels

Source: patent US20260055150A1, “GRAIL-1 PEPTIDE PRODUCTS AND METHODS” (REGENTS OF THE UNIVERSITY OF MICHIGAN, priority 2022, published 2026)
